Laboratory results published in article PMC12397098, “3-Monothiopomalidomide, a new immunomodulatory imide drug (IMiD), blunts inflammation and mitigates ischemic stroke in the rat” (GeroScience, 2025).
Read-outs that look alike come from different tables or passages of the source.

Experiments:
[1] = Brain entry in rats (brain and plasma at 5 h); type: in vivo; conditions: male, Fischer 344, rat, brain
Method: The animals were euthanized at 5 h post-dosing, and plasma and a brain sample were taken, frozen to − 80 °C, and later assayed for 3-MP by LC–MS/MS.
LC–MS/MS analysis was performed with a Vanquish Flex UHPLC (Thermo Scientific, Waltham MA, USA) and an Orbitrap Exploris 240 mass spectrometer (Thermo Scientific). Samples were separated on a C18 UHPLC column (100 mm × 2.1 mm, 3 μm; Thermo Scientific). The mobile phase A for LC separation was 0.1% formic acid and the mobile phase B was 0.1% formic acid in methanol. The chromatography gradient was initiated at 95% A and 5% B at zero time. This was continued for 1 min and, thereafter, linearly changed to 5% A and 95% B by 9 min. This was then maintained for a further 3 min. The flow rate was 0.3 mL/min, and the injection volume was 2 μl. Mass spectra were acquired using the data-dependent Top 4 MS2 (ddMS2) method with a mass scan (100–1000 m/z) and 120,000 MS resolution.

[2] = Ex vivo plasma stability, rat; type: in vitro ADME; conditions: 100 μg/ml, 37 °C, 180 min
Method: Ex vivo evaluations of drug plasma and liver microsomal time-dependent breakdown are routinely undertaken to initially characterize the metabolic stability of new pharmacological compounds and were performed by WuXi AppTec (Shanghai, China; Study No. 424847–20,211,214-MMS). Rat and human plasma and liver microsomes were purchased from Xenotech (Sprague Dawley rat, Catalog no. R1000; BioIVT, Westbury, NY) or Corning (mixed human, Catalog no. 452117; Sigma). Rat and human plasma was incubated at 37 °C on a shaker and spiked with 3-MP (100 μg/ml, n = 3). Thereafter, samples were time-dependently (0 to 180 min) removed, immediately frozen (− 80 °C), and subjected to LC–MS/MS analysis at a later time.

Nc1cccc2c1C(=S)N(C1CCC(=O)NC1=O)C2=O (stereo not drawn) [3-MP, 3-Monothiopomalidomide]
Kp at 5 h ([1]; ip, 13.25 mg/kg, 13.25 mg/kg I.P., read-out: Brain/plasma ratio): 0.52
Kp at 5 h ([1]; ip, 26.5 mg/kg, 26.5 mg/kg I.P., read-out: Brain/plasma ratio): 0.61
Kp at 5 h ([1]; other: I.P. or P.O., 13.25 or 26.50 mg/kg I.P. or P.O., read-out: brain concentrations as % of concomitant plasma levels): 0.51 to 0.61
Kp at 5 h ([1]; other: I.P. or oral (P.O.), across I.P. and P.O. doses, read-out: brain/plasma concentration ratio): 0.5 to 0.6
Kp at 5 h ([1]; po, 26.5 mg/kg, 26.5 mg/kg P.O., read-out: Brain/plasma ratio): 0.51
stability in rat plasma [2]: relatively stable
